Tests used:
Type in all cases: cell-based
[1] = tested on: Human Colorectal Carcinoma cell line, HCT-116; experiment: Relative cell viability, HCT-116 (CCK-8); conditions: 48 hours
Method: (§1) Human-derived breast cancer cell line MCF-7, human-derived lung cancer cell line A549, human-derived colorectal cancer cell line HCT-116, human pancreatic cancer cell line AsPC-1, glioblastoma cell line A172, and melanoma cell line Malme-3M were obtained from the Korean Cell Bank. gastric cancer cell line SNU-719, and bladder cancer cell line T24 were cultured in RPMI-1640 medium containing 10% FBS.
(§2) Following stabilization, the cells were harvested using Trypsin-EDTA treatment, centrifuged at 1,200 rpm for 3 minutes, the supernatant was removed, and the cells were resuspended in the same medium. They were then seeded into a 96-well plate (Costar 96-well cell culture plate, Corning) at 100 μL per well, and the conditions were adjusted as indicated in Table 5.
(§3) The cells were cultured in a 5% CO2 incubator at 37° C. for 24 hours, and after stabilization of the cells, each plate was washed with 200 μL of PBS per well and treated with 50 μL of culture medium per well.
(§4) After that, 10 μL of CCK-8 was added to each well, and the plate was incubated again at 37° C. in a 5% CO2 incubator for 2 hours.
(§5) In other words, when the survival rate of untreated cells (DMSO) is set at 100%, the relative cell survival rate in each group treated with the drug at different concentrations is indicated.

[2] = tested on: Human Melanoma cancer cell, Malme-3M; experiment: Relative cell viability, Malme-3M (CCK-8); conditions: 48 hours
Method: as §1, §2, §3, §4, §5

[3] = tested on: Human Bladder cancer cell, T24; experiment: Relative cell viability, T24 (CCK-8); conditions: 48 hours
Method: as §1, §2
(§6) The cells were cultured in a 5% CO2 incubator at 37° C. for 24 hours, and after stabilization of the cells, each plate was washed with 200 μL of PBS per well and treated with 50 μL of culture medium per well. […]
as §4, §5

[4] = tested on: Human Osteosarcoma, Saos-2; experiment: Relative cell viability, Saos-2 (CCK-8)
Method: (§7) Human-derived head and neck cancer cell line Fadu and osteosarcoma cell line Saos-2 were cultured in MEM medium containing 10% FBS, 100 U/mL penicillin, and 100 μg/mL streptomycin.
as §2, §6, §4, §5

[5] = tested on: Human Head and Neck cancer, Fadu; experiment: Relative cell viability, Fadu (CCK-8); conditions: relative to untreated cells
Method: as §7, §2, §3, §4, §5

[6] = tested on: human lung fibroblasts MRC-5; experiment: TGF-β induced Collagen I expression in MRC-5 cells (Western blot); conditions: MRC-5, TGF-β (5 ng/ml), 0.5 μM and 1 μM, 24 hours
Method: To confirm that the compound of the present invention directly acts on fibrosis-related mechanisms, in vitro experiments were performed using human lung fibroblasts MRC-5 cell lines (Korea Cell Bank).
First, MRC-5 cells were seeded at 5×10^3 cells per well in a 6-well plate and stabilized for 24 hours.
Subsequently, experimental groups were established, including a control group, a group treated with TGF-β (5 ng/ml) alone, and groups treated with TGF-β and the compound GO88 from the present invention at concentrations of 0.5 μM and 1 μM, respectively.
After treating each group with the drugs for 24 hours, the cell medium was removed, and the cells were washed twice with cold PBS. Then, RIPA lysis buffer containing phosphatase inhibitor and protease inhibitor was added to each group to extract proteins.
The extracted proteins were incubated at 4° C. for 30 minutes, then centrifuged at 13,000 rpm for 15 minutes, and the supernatant was collected. The total protein concentration was measured using the BCA protein quantification method.
Subsequently, the proteins were separated by SDS-PAGE, transferred to a PVDF membrane, and Western blot analysis was performed.
The expression levels of Collagen I, a marker related to pulmonary fibrosis, were confirmed, with GAPDH used as an internal control.

## 12-[4-(2,2-dimethylmorpholin-4-yl)]dodecyl-N-(6-aminopurine-2-yl) carboxamide [Compound 11]
[1]; HCT-116, 1 μM
  Relative cell viability (%): 21.36%
[1]; HCT-116, 10 μM
  Relative cell viability (%): 24.91%
[1]; HCT-116, 30 μM
  Relative cell viability (%): 24.78%
[1]; HCT-116, 50 μM
  Relative cell viability (%): 25.26%
[2]; 1 μM
  Relative cell viability (%): 44.06%
[2]; 10 μM
  Relative cell viability (%): 37.40%
[2]; 30 μM
  Relative cell viability (%): 36.80%
[2]; 50 μM
  Relative cell viability (%): 38.87%
[3]; T24, 1 μM
  Relative cell viability (%): 28.15%
[3]; T24, 10 μM
  Relative cell viability (%): 31.17%
[3]; T24, 30 μM
  Relative cell viability (%): 30.42%
[3]; T24, 50 μM
  Relative cell viability (%): 29.34%
[4]; Saos-2, 10 μM, 48 hours
  Relative cell viability (%): 24.98%
[4]; Saos-2, 30 μM, 48 hours
  Relative cell viability (%): 16.00%
[4]; Saos-2, 50 μM, 48 hours
  Relative cell viability (%): 36.73%
[4]; Saos-2, 48 hours
  Relative cell viability (%): 36.73%
[5]; concentration 1 μM
  Relative cell viability (%): 2.08%
[5]; concentration 10 μM
  Relative cell viability (%): 9.68%
[5]; concentration 30 μM
  Relative cell viability (%): 8.51%
[5]; concentration 50 μM
  Relative cell viability (%): 4.78%

## Nc1ncccc1C(=O)NCCCCCCCCCCCCN1CCNCC1 [Compound 14, 2-Amino-N-(12-(piperazin-1-yl)dodecyl)nicotinamide]
[6]
  protein expression of Collagen I: inhibited in a concentration-dependent manner

From patent publication US20260183302A1, “PDK1 REGULATORY COMPOUND AND COMPOSITION CONTAINING THE SAME” (PROVIBIO CO., LTD., priority 2024, published 2026)
